Laboratory results taken from patent US8076485B2, “Methylphenidate derivatives and uses of them” (priority 2005, dated 2011).

What was measured:
[1] = threo versus erythro methylphenidate; cited from earlier work
erythropoietin (EPO) = experiment: Erythropoietin (EPO) release from HepG2 cells (ELISA); assay type: cell-based, human; details: HepG2, hypoxia (5% CO2), 24 hours; Cpd II 15 μg/ml, LY 294002 25 μM; hypoxia alone 108.39 ± 2.81
Experimental: HepG2 is a human hepatic cancer cell line, which was obtained from ATCC. HepG2 cells were grown to confluence in 25 cm^2 flasks in IMDM medium containing 10% FCS. Then, the cells were trypsinized as follows. The medium in each flask was aspirated and replaced with 5 ml of 0.025% trypsin/EDTA (Cambrex). The cells were monitored on a microscope until they no longer adhered to the flasks. Then, 5 ml of trypsin neutralizing solution (TNS) (Cambrex) were added to each flask to stop the reaction. The cell suspension was centrifuged at 1000 rpm for 10 minutes, and the supernatants were aspirated. The cells were reconstituted in fresh medium and counted. Then, 4 ml of the cell suspension in medium containing at 1.22×10^6 cells/ml were mixed with an additional 1 ml of medium. Next, 0.5 ml/well of the resulting cell suspension was added to wells in a 24-well culture plate (about 500,000 cells/well). The cells were treated as indicated in Table 5 below and incubated for 24 hours at 37° C., with or without 5% CO2. The supernatants were removed from the wells and centrifuged to remove debris. Next, the supernatants were analyzed for erythropoietin (EPO) production. EPO was measured by ELISA using a kit obtained from R & D Systems, Minneapolis, Minn. (catalog no. DE900) following the manufacturer's instructions.

NFκB = experiment: Activated NFκB in TNFα- or VEGF-treated HIAECs (TransAM assay); assay type: cell-based; details: Homo sapiens, TNFα 10 ng/ml, Cpd II 15 μg/ml, LY 294002 10 μM, read-out: Percent Inhibition (NFκB)
Experimental: Passage 8 (human iliac artery endothelial cells (HIAECs) (obtained from ATCC; catalog no. CC-2545) were grown to confluence in 25 cm^2 flasks in EGM-2 medium. Eighteen hours prior to the experiment, the medium was replaced with EGM-2 medium containing 0.1% FCS plus heparin, GA1000 (gentamycin) and bovine pituitary extract (all from Cambrex) to place the cells in a resting state. To perform the experiment the medium was aspirated from the flasks, and the following additives were added to the flasks in fresh medium (total volume of 5 ml/flask): 15 μg/ml of the compound of formula II (Cpd II) or 10 μM LY 294002. The flasks were incubated 2 hours at 37° C., 5% CO2. After this incubation, VEGF or TNFα was added to give a final concentration 10 ng/ml, and the flasks were incubated for an additional 30 minutes. Then, the amount of NFκB was determined using a TransAM™ NFκB p65/NFκB p50 Transcription Factor Assay Kit and a Nuclear Extract Kit from Active Motif North America, Carlsbad, Calif., as described in Example 12.

TCR-positive cells = experiment: Annexin staining of TCR-positive cells (flow cytometry, cell death); assay type: cell-based, human; details: PHA plus dexamethasone 10 μM
Experimental: After this incubation, PHA was added to give a final concentration of 5 μg/ml, and the cells were incubated for an additional 72 hours at 37° C., 5% CO2. All cultures were performed in triplicate. Cells were then removed by centrifugation at 1000 rpm for 10 minutes.
The cells were further analyzed by flow cytometry Annexin was used to determine populations of dead or dying cells. Anti-CD69 antibody was used to establish the level of cellular activation. Antibody to T-cell receptor αβ (TCR) was also used. Recombinant Annexin 5 (PE and FITC conjugates) and the antibodies were all purchase from Caltag (Burlingham, Calif.) and used following the manufacturer's recommendations.

IL-8 = IL-8 release from LPS-stimulated THP-1 monocytes (ELISA); assay type: cell-based; details: THP-1, LPS 200 ng/ml, 24 hours; Cpd II 15 μg/ml, Dex 10 μM
Experimental: (§1) THP-1 is a monocyte cell line obtained from American Type Culture Collection (ATCC) (catalog no. TIB-202). […] After 1 hour, lipopolysaccharide (LPS) (obtained from Sigma) was added to the cultures to give a final concentration of 200 ng/ml, and the cells were then incubated for an additional 4 hours or for an additional 24 hours. After the incubation, the cells were centrifuged, and the supernatants were collected. The concentrations of IL-8 and TNFα in the supernatants were determined by ELISA.
The concentrations of IL-8 in the supernatants were determined by ELISA performed as described in Example 4.

TNFα = TNFα release from LPS-stimulated THP-1 monocytes (ELISA); assay type: cell-based; details: THP-1, LPS 200 ng/ml, 24 hours; Cpd II 15 μg/ml, Dex 10 μM
Experimental: as §1
The TNFα ELISA was performed as described in Example 2.

## COC(=O)C(c1ccccc1)C1CCCCN1 (single isomer, unassigned) [threo diastereomer]
[1]
  potency relative to the erythro diastereomer: about 80 times

## O=c1cc(N2CCOCC2)oc2c(-c3ccccc3)cccc12 [LY 294002, reference compound]
Erythropoietin (EPO)
  Mean Units/ml EPO: 52.99 ± 1.04 Units/ml
NFκB
  inhibition at 10 µM: 10%

## C[C@@H]1C[C@H]2[C@@H]3CCC4=CC(=O)C=C[C@]4(C)[C@@]3(F)[C@@H](O)C[C@]2(C)[C@@]1(O)C(=O)CO [dexamethasone, reference compound]
TCR-positive cells
  Annexin staining of TCR-positive cells: 48%
IL-8
  Mean IL-8 Concentration: 2300.00 ± 283.41 pg/mL
TNFα
  Mean TNFα Concentration: 94.759 ± 8.755 pg/mL
